Reference: paper PMC10959927, “Platinum iodido drugs show potential anti-tumor activity, affecting cancer cell metabolism and inducing ROS and senescence in gastrointestinal cancer cells” (Communications Biology, 2024)
Where “and” joins values, the source holds several entries; their conditions need not be identical. Identical values can stand only once.

Assays:
C57Bl6 mice [1] = assay: Indirect calorimetry analyses (PhenoMaster); type: in vivo, mouse
Experimental: Indirect calorimetry analyses were carried out using a 16-chamber TSE PhenoMaster monitoring system (TSE Systems GmbH, Bad Homburg, Germany). Full access to food and water was continuously available, and intake was monitored using built-in devices located within each cage. Calorimetry measurements were carried out during a period of 72 h, according to animal weight, to exclude changes in body weight that would contribute to differences in energy expenditure measurements. […] Mice were introduced into individual chambers and were on a 12 h light-dark cycle (lights on at 07:00am) during the course of the experiment, with a maintained room temperature of 22 ± 2°C. Oxygen consumption and CO2 release was measured. From these values, respiratory exchange ratio (RER) was determined as VCO2/VO2 and energy expenditure (EE) was calculated as = ([…] + 1.232 x RER) x VO2. Locomotor activity was reported as the average light beam breaks (XT + YT) per min. XT and YT (T = total) were calculated from the sum of the ambulatory and fine movements. Water and food consumption (DRINK and FOOD, respectively, Fig. S8) were also monitored and recorded.

[2] = system: PANC1 xenografted tumors in NU-Foxn1nu nude mice; assay: PANC1 xenograft in vivo treatment; design: species or system mouse; conditions: for Fold-change in tumor volume vs d0: individual tumors
Experimental: (§1) PANC1 cells were then trypsinized and resuspended in RPMI culture medium with 40% Matrigel (no. 45354234, Corning® Matrigel® Basement Membrane Matrix, LDEV-free, Cultek, Spain) at a concentration of 1 × 10^5 cells per 50 μL, and then 50 μL of the resuspended cells were subcutaneously injected into the right and left flanks of female 8 week-old NU-Foxn1nu nude mice (Janvier Labs, France). Tumor growth and volumes were monitored every 2–3 days for up to 4 weeks with a caliper, and tumor volumes (mm^3) were computed using the formula: 0.5 × D12 × D2, where D1 and D2 are the width or the […] diameter and the length or the smallest diameter of a given tumor, respectively. At the end of the experiment, mice were sacrificed, and tumors extracted, photographed, and weighed. (ii) For xenograft in vivo treatment experiments, 1 × 10^6 PANC1 cells resuspended in RPMI culture medium supplemented with 40% Matrigel (Corning®) were orthotopically injected in the pancreas of female NU-Foxn1nu nude mice (Janvier Labs, France). Approximately 2 months post injection, tumors were excised, cut into identical pieces of ~50 mm^3 and implanted (with RPMI culture medium supplemented with 40% Matrigel® Corning®) subcutaneously into the left and right flanks of 15 8 week-old NU-Foxn1nu nude mice (Janvier, France). […] Control mice were treated with 100 µl of physiological saline (0.9% NaCl). Tumor volumes were determined twice per week by caliper measurements throughout the course of the study as described above. At the indicated end point, mice were sacrificed, weighed, blood was collected in EDTA tubes (Aquisel, Cat no. 107545), urine was collected in 1.5 ml Eppendorf tubes, and tumors were excised, weighed, photographed, and fixed in 4% Paraformaldehyde (Alfa Aesar™).

NU-Foxn1nu nude mice [3] = assay: Whole blood hematology of treated xenograft mice; type: in vivo, mouse; conditions: for Basophils / Eosinophils / Haemoglobin / Hematocrit / Lymphocytes / MCH / MCHC / MCV / MPV / Monocytes / Neutrophils / RDW-CV: individual mice
Experimental: as §1
(§2) Whole blood was analyzed with an Element HT5, Veterinary Hematology Analyzer (Scil animal care company GmbH, Madrid, Spain) and plasma was analyzed at the Analytical Laboratory of the Hospital Fundación Jiménez Díaz. Plasma-EDTA samples were examined for markers of renal (urea, BUN, and creatinine) and liver [bilirubin and GGT (γ-Glutamyltransferase)] injury. Urine was analyzed for protein, creatinine and glucose. Urea, creatinine, and glucose were detected by enzymatic assays, total protein by turbidimetry, and bilirubin and GGT via a colorimetric assay in the Cobas® Roche 701 module (a fully automated, high throughput photometric analyzer for a large array of quantitative and qualitative in vitro tests), following the manufacturer’s instructions.

NU-Foxn1nu nude mice [4] = assay: Plasma biochemistry (renal and liver injury markers) of treated xenograft mice; type: in vivo, mouse; conditions: for BUN / Urea: blood
Experimental: as §1, §2

C57Bl6 mice [5] = assay: In vivo safety: weight and Irwin's test after tail vein injection; design: species or system mouse; conditions: 1.4 mg/kg tail vein injection, early acute time points
NU-Foxn1nu nude mice [6] = assay: Urine analysis of treated xenograft mice; type: in vivo, mouse
Experimental: as §1, §2

[7] = system: PANC1 cells in NU-Foxn1nu nude mice; assay: Xenograft of pre-treated PANC1 cells; type: in vivo, mouse; conditions: for Tumor Growth (mm3): ND: No Detected
Experimental: as §1

[8] = PANC1 xenograft, 1.4 mg/kg r.o.
[9] = 17 days of I5 treatment, 1.4 mg/kg r.o. or i.p.
[10] = Intra-Peritoneal group (I5 1.4 mg/kg), d17, single mice, 1.4 mg/kg
[11] = Retro-Orbital group (I5 1.4 mg/kg), d17, single mice, 1.4 mg/kg
[12] = Intra-Peritoneal group (I5 1.4 mg/kg), single mice
[13] = Intra-Peritoneal group (I5 1.4 mg/kg), single mice, 1.4 mg/kg
[14] = Retro-Orbital group (I5 1.4 mg/kg), single mice, 1.4 mg/kg

CC(C)[NH][Pt@SP3]([I])([I])[NH]C(C)C [I5, trans-[PtI2(isopropylamine)2]]
RER, EE, locomotor activity, food and water intake vs untreated (C57Bl6 mice [1]; C57Bl6 mice, 1.4 mg/kg i.v.): no differences were observed | DRINK (C57Bl6 mice [1]; Fig. S8B left graph, individual mice): 4.49 mL and 10.13 mL and 7.81 mL and 7.64 mL and 8.16 mL | Fold-change in tumor volume vs d0 ([2]; IP, 0 days post-treatment initiation): 1 | Fold-change in tumor volume vs d0 ([2]; IP, 3 days post-treatment initiation): 1.05 and 1.45 and 0.79 and 1.51 and 1.63 and 0.95 and 1.1 | Fold-change in tumor volume vs d0 ([2]; IP, 7 days post-treatment initiation): 1.29 and 1.56 and 0.79 and 1.32 and 1.71 and 0.86 and 1.49 | Fold-change in tumor volume vs d0 ([2]; IP, 10 days post-treatment initiation): 1.75 and 2.48 and 0.96 and 2.5 and 2.73 and 1.37 and 2.28 | Fold-change in tumor volume vs d0 ([2]; IP, 14 days post-treatment initiation): 2.21 and 4.16 and 0.85 and 2.92 and 3.98 and 1.35 and 3.75 | Fold-change in tumor volume vs d0 ([2]; IP, 17 days post-treatment initiation): 3.08 and 4.39 and 0.91 and 3.92 and 4.58 and 1.62 and 4.25 | tumor growth ([2]; PANC1 xenograft, 1.4 mg/kg i.p.): reduced tumor growth | tumor growth [2, 8]: reduced tumor growth | tumor volume at conclusion of the experiment [2, 8]: statistically significant effect on tumor volume | tumor weight at conclusion of the experiment [2, 8]: marked reduction in tumor weight | Fold-change in tumor volume vs d0 ([2]; RO, 0 days post-treatment initiation): 1 | Fold-change in tumor volume vs d0 ([2]; RO, 3 days post-treatment initiation): 0.66 and 0.95 and 1.12 and 1.34 and 1.68 | Fold-change in tumor volume vs d0 ([2]; RO, 7 days post-treatment initiation): 0.81 and 1.29 and 1.57 and 1.05 and 1.08 | Fold-change in tumor volume vs d0 ([2]; RO, 10 days post-treatment initiation): 0.74 and 2.21 and 2.36 and 1.14 and 1.44 | Fold-change in tumor volume vs d0 ([2]; RO, 14 days post-treatment initiation): 0.85 and 2.64 and 3.43 and 1.26 and 1.18 | Fold-change in tumor volume vs d0 ([2]; RO, 17 days post-treatment initiation): 1.43 and 3.89 and 4.46 and 1.56 and 1.13 | adverse effects on hematocrit parameters (NU-Foxn1nu nude mice [3]; [9]): no adverse effects | Basophils (NU-Foxn1nu nude mice [3]; Intra-peritoneal): 0.41 109 cells/L and 0.45 109 cells/L and 0.47 109 cells/L and 0.86 109 cells/L | Eosinophils (NU-Foxn1nu nude mice [3]; Intra-peritoneal): 0.45 109 cells/L and 0.33 109 cells/L and 0.19 109 cells/L and 0.47 109 cells/L | Haemoglobin (NU-Foxn1nu nude mice [3]; Intra-peritoneal): 18.5 g/dL and 17.5 g/dL and 19.1 g/dL and 17.7 g/dL | Hematocrit (NU-Foxn1nu nude mice [3]; Intra-peritoneal): 43.4% and 39.8% and 44.6% | Lymphocytes (NU-Foxn1nu nude mice [3]; Intra-peritoneal): 4.49 109 cells/L and 2.36 109 cells/L and 3.04 109 cells/L and 4.43 109 cells/L | MCH (NU-Foxn1nu nude mice [3]; Intra-peritoneal): 19.3 pg and 19.1 pg and 19.2 pg and 19.7 pg | MCHC (NU-Foxn1nu nude mice [3]; Intra-peritoneal): 42.6 g/dL and 44 g/dL and 42.8 g/dL and 44.4 g/dL | MCV (NU-Foxn1nu nude mice [3]; Intra-peritoneal): 45.3 fL and 43.5 fL and 44.8 fL and 44.2 fL | MPV (NU-Foxn1nu nude mice [3]; Intra-peritoneal): 6.1 fL and 5.5 fL and 6 fL | Monocytes (NU-Foxn1nu nude mice [3]; Intra-peritoneal): 1.17 109 cells/L and 0.96 109 cells/L and 0.45 109 cells/L and 3.1 109 cells/L | Neutrophils (NU-Foxn1nu nude mice [3]; Intra-peritoneal): 4.24 109 cells/L and 2.95 109 cells/L and 1.59 109 cells/L and 5.08 109 cells/L | RDW-CV (NU-Foxn1nu nude mice [3]; Intra-peritoneal): 13.9% and 14.8% and 14.3% | Basophils (NU-Foxn1nu nude mice [3]; Retro-orbital): 0.43 109 cells/L and 0.62 109 cells/L and 0.64 109 cells/L | Eosinophils (NU-Foxn1nu nude mice [3]; Retro-orbital): 0.21 109 cells/L and 0.31 109 cells/L and 0.34 109 cells/L | Haemoglobin (NU-Foxn1nu nude mice [3]; Retro-orbital): 18.3 g/dL | Hematocrit (NU-Foxn1nu nude mice [3]; Retro-orbital): 42.9% and 41.4% and 42.8% | Lymphocytes (NU-Foxn1nu nude mice [3]; Retro-orbital): 2.46 109 cells/L and 3.66 109 cells/L and 5.37 109 cells/L | MCH (NU-Foxn1nu nude mice [3]; Retro-orbital): 19 pg and 20.5 pg and 19.2 pg | MCHC (NU-Foxn1nu nude mice [3]; Retro-orbital): 42.6 g/dL and 44.2 g/dL and 42.9 g/dL | MCV (NU-Foxn1nu nude mice [3]; Retro-orbital): 44.5 fL and 46.3 fL and 44.8 fL | MPV (NU-Foxn1nu nude mice [3]; Retro-orbital): 5.6 fL and 6.1 fL and 5.2 fL | Monocytes (NU-Foxn1nu nude mice [3]; Retro-orbital): 0.91 109 cells/L and 0.87 109 cells/L and 0.47 109 cells/L | Neutrophils (NU-Foxn1nu nude mice [3]; Retro-orbital): 3.45 109 cells/L and 3.24 109 cells/L and 2.71 109 cells/L | RDW-CV (NU-Foxn1nu nude mice [3]; Retro-orbital): 14.2% and 14.7% and 14.6% | adverse effects on plasma blood analyses (NU-Foxn1nu nude mice [4]; [9]): no adverse effects | GGT (NU-Foxn1nu nude mice [4]; Intra-Peritoneal group (I5 1.4 mg/kg), d17, single mice): < 3 UI/L | Serum Creatinine (NU-Foxn1nu nude mice [4]; [10]): 0.2 mg/dL and 0.17 mg/dL and 0.22 mg/dL | GGT (NU-Foxn1nu nude mice [4]; Retro-Orbital group (I5 1.4 mg/kg), d17, single mice): < 3 UI/L | Serum Creatinine (NU-Foxn1nu nude mice [4]; [11]): 0.17 mg/dL and 0.2 mg/dL and 0.21 mg/dL | Total Bilirubin (NU-Foxn1nu nude mice [4]; [11]): < 0.15 mg/dL and < 0.21 mg/dL | BUN (NU-Foxn1nu nude mice [4]; [10]): 19 mg/dL and 18 mg/dL and 16 mg/dL | Urea (NU-Foxn1nu nude mice [4]; [10]): 40 mg/dL and 39 mg/dL and 38 mg/dL and 35 mg/dL | BUN (NU-Foxn1nu nude mice [4]; [11]): 16 mg/dL and 19 mg/dL | Urea (NU-Foxn1nu nude mice [4]; [11]): 40 mg/dL and 34 mg/dL and 35 mg/dL | adverse effects on weight and neurological perturbations (Irwin's test) (C57Bl6 mice [5]): no adverse effects | adverse effects on urine analyses (NU-Foxn1nu nude mice [6]; [9]): no adverse effects | Creatinine in Urine (NU-Foxn1nu nude mice [6]; [12]): 59 mg/dL | Protein/Creatinine in Urine (NU-Foxn1nu nude mice [6]; [12]): 8814 | Glucose in Urine (NU-Foxn1nu nude mice [6]; [13]): 40 mg/dL and 20 mg/dL | Protein in Urine (NU-Foxn1nu nude mice [6]; [13]): 80 mg/dL and 52 mg/dL | Glucose in Urine (NU-Foxn1nu nude mice [6]; Retro-Orbital group (I5 1.4 mg/kg), single mice): 30 mg/dL | Creatinine in Urine (NU-Foxn1nu nude mice [6]; [14]): 56 mg/dL and 57 mg/dL and 61 mg/dL | Protein/Creatinine in Urine (NU-Foxn1nu nude mice [6]; [14]): 10536 and 9221 and 16383 | Tumor Take (%) ([7]; Day 7): 0% | Tumor Take (%) ([7]; Day 10): 12.5% | Tumor Growth (mm3) ([7]; Day 10, individual tumors): 10.7 mm3 | Tumor Take (%) ([7]; Day 13): 12.5% | Tumor Growth (mm3) ([7]; Day 13, individual tumors): 7.7 mm3 | Tumor Take (%) ([7]; Day 16): 25% | Tumor Growth (mm3) ([7]; Day 16, individual tumors): 9.4 mm3 and 8.5 mm3 | Tumor Take (%) ([7]; Day 20): 25% | Tumor Growth (mm3) ([7]; Day 20, individual tumors): 7.4 mm3 and 10.1 mm3 | Tumor Take (%) ([7]; Day 23): 37.5% | Tumor Growth (mm3) ([7]; Day 23, individual tumors): 8 mm3 and 10.9 mm3 and 9.7 mm3 | Tumor Take (%) ([7]; Day 28): 62.5% | Tumor Growth (mm3) ([7]; Day 28, individual tumors): 9.8 mm3 (2×) and 10.8 mm3 and 10.9 mm3 and 11.6 mm3 and 8.7 mm3 | tumor volumes and weights on day 28 ([7]; PANC1 cells pre-treated 24 h with 20 µM, injected s.c. into nude mice): significantly reduced volumes and weights | tumor take and growth ([7]; PANC1 cells pre-treated 24 h with 20 µM, injected s.c. into nude mice, 28 days): clear delay in tumor take and growth | Tumor Weight ([7]; individual tumors): 0.1301 g and 0.0568 g and 0.1068 g and 0.0882 g and 0.0887 g and 0.1001 g
